This note sets out measurements from patent US8399412B2, “Method of treating or preventing tissue deterioration, injury or damage due to periodontal disease or disease of oral mucosa, and/or downregulating NF-kappabeta or supressing NF-kappabeta-mediated actions” (priority 2006, dated 2013).

Assay [1] has as its system NFκB p65 subunit. Briefly: Nuclear NFκB p65 protein level ELISA in HCET nuclear fractions. In kind it is cell-based, human. The following applies: TNF-α 10 ng/ml, Tβ4 1 μg/ml, 30 minutes, P=0.0066. As to the method: HCET were cultured until approximately 80% confluent. […] Cells maintained in culture medium only, or Tβ4 only were used as controls. The culture medium was removed and the adherent cells were scraped from the dish into 1 ml of cold PBS. The solution was centrifuged at 3000 rpm for 5 minutes. The cell pellet was resuspended in 0.5 ml hypotonic buffer (20 mM Tris-HCl, pH 7.4, 10 mM NaCl, 3 mM MgCl2) and incubated on ice for 15 minutes. 25 μl of 10% NP-40 was added with vortexing. The homogenate was centrifuged for 10 minutes at 3000 rpm at 4° C. The pellet was resuspended in 100 μl of the cell extraction buffer and incubated for 30 minutes on ice with vortexing every 10 minutes. The homogenate was centrifuged at 14,000 rpm for 30 minutes at 4° C. The resulting supernatant was used for the NFκB total p65 subunit ELISA. A representative analysis is presented as NFκB protein (pg/ml)±SEM. Statistical analysis was performed using the unpaired Student's t-test with significance set at P<0.05.
Nuclear translocation is an essential downstream event in NFκB mediated gene transcription. […] HCET were treated for 30 minutes and the amount of NFκB protein in nuclear fractions was measured by ELISA. Only activated, phosphorylated NFκB is capable of translocating to the nucleus.
A general note: ELISA stands for enzyme-linked immunosorbent assay.

In assay [2] the test system is NFκB. Briefly: NFκB activity assay in TNF-α stimulated non-transformed human corneal epithelial cells (HCEC). Type of assay: cell-based. The following applies: non-transformed human corneal epithelial culture, Tβ4 treatment, results not shown. The method, then: Non-transformed human corneal epithelial cells (HCEC) at passage 3 were purchased from Cascade Biologics (Portland, Oreg.). […] HCEC were used for experiments at passage 4. The transformed human corneal epithelial cell line 10.014 pRSV-T (HCET) was additionally used in this study. HCET were maintained in serum-free KGM on tissue culture plastic coated with a fibronectin-collagen type I matrix. Cells were cultured in a standard tissue culture incubator at 37° C. and in an atmosphere of 5% CO2 and 95% room air with medium changes every two days.
At each time point the culture medium was removed and the adherent cells were scraped from the dish into 1 ml of cold PBS. The solution was centrifuged at 3000 rpm for 5 minutes. The cell pellet was lysed in 1 ml of cell extraction buffer provided with the activity assay kit (TransAm NFκB p65 Transcription Factor Assay Kit, Active Motif, Carlsbad, Calif.) on ice for 30 minutes, with vortexing every 10 minutes. The extract was centrifuged at 13,000 rpm for 10 minutes at 4° C. and the supernatant was used for activity assays following the kit protocol. In addition to the activity assay, the ELISA for total NFκB p65 subunit protein was completed simultaneously using aliquots of the same supernatants. ELISA values were used to standardize the activity values to correct for differences in protein concentration in each sample. […]

For assay [3], the system named is NFκB p65 subunit. Briefly: NFκB p65 phosphorylation assay (CASE ELISA, phosphoserine 276) in HCET. Type of assay: cell-based, human. Particulars: 30 minutes. The method, then:
HCET were cultured in wells of a 96-well plate until approximately 80% confluent. […] At each time point adherent cells were fixed in cell fixing buffer containing 4% glutaraldehyde according to the phosphorylation assay kit protocol (CASE, cellular activation of signaling ELISA for phosphoserine 276 of NFκB p65 subunit, SuperArray, Frederick, Md.). Fixed cells were then processed using phospho-specific (phosphoserine 276 p65) or pan-protein specific (nonphosphorylated p65) primary antibodies and HRP-conjugated secondary antibodies. Following incubation with developing and stop solutions provided with the kit, individual well absorbance was read at 450 nm. Variation in cell number in individual wells was corrected by assaying the OD 540 nm of stained cells following completion of the phosphorylation assay and performing numerical correction of the OD 450 nm values. The assay was repeated twice (n=8) and a representative result is presented as relative amounts of phosphorylated and nonphosphorylated NFκB in arbitrary units±SEM. Statistical analysis was performed using the unpaired Student's t-test with significance set at P<0.05.
In addition to nuclear translocation, the p65 subunit of NFκB must undergo phosphorylation on several serine residues in order to be activated. […]

The subject of assay [4] is NFκB. The assay is described as follows: NFκB activity assay (binding to consensus oligonucleotides) in TNF-α stimulated HCET. In kind it is cell-based, human. Particulars: TNF-α 10 ng/ml. The method, then: At each time point the culture medium was removed and the adherent cells were scraped from the dish into 1 ml of cold PBS. The solution was centrifuged at 3000 rpm for 5 minutes. The cell pellet was lysed in 1 ml of cell extraction buffer provided with the activity assay kit (TransAm NFκB p65 Transcription Factor Assay Kit, Active Motif, Carlsbad, Calif.) on ice for 30 minutes, with vortexing every 10 minutes. The extract was centrifuged at 13,000 rpm for 10 minutes at 4° C. and the supernatant was used for activity assays following the kit protocol. In addition to the activity assay, the ELISA for total NFκB p65 subunit protein was completed simultaneously using aliquots of the same supernatants. ELISA values were used to standardize the activity values to correct for differences in protein concentration in each sample. The assays were repeated three times (n=3) and the results of a representative assay are reported as NFκB activity in arbitrary units±SEM. Statistical analysis was performed using the unpaired Student's t-test with significance set at P<0.05.
We hypothesized that Tβ4 functions as a transcription factor mediator in addition to its other known cellular functions. […] Transcription factor activity was analyzed calorimetrically using an assay that measured the ability of NFκB to bind to oligonucleotides containing consensus κB binding motifs immobilized to a plastic substrate. […]

The test system of assay [5] is NFκB p65 subunit. The assay is described as follows: Nuclear translocation of NFκB p65 by immunofluorescence microscopy in HCET. In kind it is cell-based, human. The following applies: Tβ4 1 μg/ml during TNF-α stimulation, 30 minutes. The method, then: HCET were cultured on collagen-coated 4 chambered glass microscope slides to approximately 80% confluence. […] Cells maintained in culture medium only, or Tβ4 only were used as controls. Cells were fixed in 3.7% glutaraldehyde/PBS for 10 minutes then washed in PBS. Cells were permeabilized in 1% Triton X-100 for 5 minutes and washed again. The cells were then incubated with rabbit polyclonal antibodies specific for the N-terminus of human p65 NFκB (Santa Cruz Biotechnologies, Santa Cruz, Calif.) followed by FITC-conjugated goat anti-rabbit secondary antibodies. Digitized images were captured and stored (Axiophot fluorescence microscopy and imaging system, Carl Zeiss Medicine, Inc., Thornwood, N.Y.).
The nuclear translocation of NFκB was also examined morphologically in HCET by immunofluoresence microscopy using an antibody specific for the p65 subunit.

The subject of another assay is gingival fibroblasts. Briefly: APOPercentage apoptosis assay in TNF-α stimulated gingival fibroblasts. The following applies: TNF-α 20 ng/ml, 8 hours, 0.01 ug/ml Tβ4, p=0.0004. Type of assay: cell-based, Human. The method, then:
It is well documented that proteases from oral bacteria such as P. gingivalis can induce death in different cell types in vitro, including fibroblasts, epithelial cells, and endothelial cells. Apoptosis can also be induced as a component of the inflammatory response.
The fibroblasts were then assayed using the APOPercentage assay (Accurate Chemical, Westbury, N.Y.), which detects changes in cell membrane phospholipids. […] The absorbance of released dye can be measured and correlated to the relative amount of apoptosis in the culture. […] There were a greater number of apoptotic cells in fibroblasts stimulated with TNFα compared to cells stimulated with TNFα and also treated with Tβ4.

Another assay has as its system IL-8. The assay is described as follows: TNFα-induced IL-8 secretion by gingival fibroblasts (ELISA). Type of assay: cell-based, Human. Particulars: for secreted IL-8 versus fibroblasts not treated with Tβ4: gingival fibroblasts, 20 ng/ml TNF alpha. As to the method:
Human gingival Fb grown to 80% confluence, serum-starved, pretreated with Tb4 for one hour then with 20 ng/ml TNFa±Tb4 for 24 hours. […] of conditioned medium was used for ELISA. After removing medium, cells are fixed, stained, and lysed. OD 550 nm readings are used to normalize ELISA data for total cell number. Media control values were negligible and are not shown.
Human gingival fibroblasts (HGF-1, ATCC) were stimulated with TNFα (20 ng/ml), a potent pro-inflammatory cytokine widely used in in vitro models of inflammation.

On to Thymosin beta 4 [Tβ4], for which, in the assay on NFκB p65 subunit [1], the “NFκB protein in nuclear fractions” value is given as “significant decrease”. For the same substance, the “NFκB activity after TNF-α stimulation” value with NFκB [2] is listed as “decreased NFκB activity”. For the same substance, the “reduction of NFκB phosphorylation levels” value with NFκB p65 subunit [3] (TNF-α 10 ng/ml, Tβ4 1 μg/ml) turned out to be 45%. In the assay with NFκB p65 subunit [3] (Tβ4 present during TNF-α stimulation, 100% with TNF-α only), the “proportion of phosphorylated NFκB” value is on record as 55%. Besides, the “NFκB activity versus cells stimulated with TNF-α” value in the assay on NFκB [4] (Tβ4 1 μg/ml, 5, 10, 15 and 20 minutes of stimulation) is “increased NFκB activity”. The “TNF-α induced activation of NFκB” value in the assay with NFκB [4] (Tβ4 1 μg/ml, 30 and 60 minutes) was “significantly suppressed”. Besides, the “NFκB p65 localization (fluorescence pattern)” value in the assay with NFκB p65 subunit [5] is “mainly perinuclear”. The “apoptotic cell death induced by TNF-α” value in the assay with gingival fibroblasts is “significantly inhibits apoptotic cell death”. Further, in the assay with IL-8 (HGF-1 fibroblasts, TNFα 20 ng/ml, 0.01 ug/ml Tβ4, 24 hours, p=0.0012), the “inhibition of TNFα-stimulated IL-8 secretion” value is on record as “most inhibition”. Also, the “IL-8 secretion, dose response” value with IL-8 (HGF-1 fibroblasts, TNFα 20 ng/ml, several concentrations of Tβ4, 24 hours, FIG. 3) is on record as “inhibited IL-8 secretion in a dose-dependent manner”. Further, the “secreted IL-8 versus fibroblasts not treated with Tβ4” value in the assay with IL-8 (1 ug/ml Tβ4, 24 hours, FIG. 1, p=0.0004) is “significantly lower levels of secreted IL-8”; in the assay with IL-8 (5 ug/ml Tβ4, 24 hours, FIG. 1, p=0.0016) it was “significantly lower levels of secreted IL-8”; with IL-8 (Tβ4 0.001-5 ug/ml (all levels), 24 hours), “lower levels of secreted IL-8”.
